Experimental data published in patent publication US20220000872A1, “METHOD OF ENHANCING IMMUNE-BASED THERAPY” (OncoTracker, Inc., priority 2018, published 2022).
Entries after “also recorded” stand apart in the source; their conditions may differ.

Columns and labels:
IL-2 gene expression [1] = test: IL-2 gene expression in MMBM (Example 12); format: cell-based, human
Experimental: Bone marrow mononuclear cells (BMMCs) were collected from MM patients after obtaining IRB approval. Single-cell suspensions were prepared from human MM LAGλ-1A xenografts which had been grown in severe combined immunodeficient mice. HS-5 stromal and SUP-T1 T cells were purchased from ATCC. The cells were cultured and treated with or without RUX and then subjected to qRT-PCR, flow cytometric analysis, and western blot analysis. For qRT-PCR, total RNA was extracted and applied to cDNA synthesis, followed by qPCR. Gene expression was analyzed in MM BMMCs alone or co-cultured with stromal cells or T cells with or without Rux treatment (1 μM) in vitro.
Next, we tested whether B7-H3 blockade by Rux could potentially restore exhausted T cell activity against myeloma cells in MMBM.

MM cell = MM cell apoptosis in the presence of IL-2 stimulated T-cells (Example 11); format: cell-based, human; conditions: RUX 0-5 μM; antibodies 0-10 μg/ml; concentration dependent
Experimental: We further investigated the effects of RUX on PD-L1 and PD-L2 expression in primary and stromal cells from MM patients' BM samples in vitro. […] We then determined whether RUX can augment the anti-MM effects of T-cells in vitro. […] To evaluate the efficacy of drugs in vivo, severe combined immune deficient mice implanted with the human MM xenograft LAGκ-2 were treated with RUX (30 mg/kg). […] In contrast, RUX had no effect on PD-1 expression on T-cells.

[2] = tested on: PD-L1 expression in the xenograft; test: PD-L1 expression in human MM xenograft LAGκ-2 in severe combined immune deficient mice; format: in vivo; conditions: LAGκ-2 in SCID mice; RUX 30 mg/kg; vs untreated control group
Experimental: (§1) We further investigated the effects of RUX on PD-L1 and PD-L2 expression in primary and stromal cells from MM patients' BM samples in vitro. […] We then determined whether RUX can augment the anti-MM effects of T-cells in vitro. […] To evaluate the efficacy of drugs in vivo, severe combined immune deficient mice implanted with the human MM xenograft LAGκ-2 were treated with RUX (30 mg/kg).

PD-L2 gene expression [3] = test: PD-L2 gene expression (qPCR) in MM BMMCs co-cultured with THP-1 monocytes; format: cell-based, human; conditions: BMMCs from MM patient #3041 co-cultured with THP-1 monocytes, RUX 1 μM, 48 hours
Experimental: MM patient #3041 bone marrow mononuclear cells were co-cultured with THP-1 monocytes with or without RUX (from […] to 10 μM) for 48 hours.
Next, we investigated the effects of ruxolitinib (RUX) on PD-L1 and PD-L2 gene expression in MM bone marrow mononuclear cells (BMMCs) co-cultured with THP-1 monocytes. THP-1 monocytes co-cultured with primary BMMCs from MM patient #3041 were grown in the presence or absence of RUX (1 μM).

[4] = tested on: CD138+ myeloma tumor cells; test: Annexin V apoptosis assay of CD138-selected primary myeloma cells co-cultured with IL-2-stimulated T-cells; format: cell-based, human; conditions: CD138+ cells with IL-2-stimulated SUP-T1 T cells; 72 hours; RUX at varying concentrations; rose from approximately 35% up to this value, concentration dependent
Experimental: FIG. 10A depicts an apoptosis assay of fresh CD138-selected myeloma tumor cells combined with IL-2-stimulated T-cells (SUP-T1, ATCC) and treated with ruxolitinib (RUX) in vitro. T-cells were pre-treated with IL-2 (20 ng/ml) for 24 hours. Primary myeloma cells were CD138-selected using an immunoadsorption column and co-cultured with T cells with or without RUX at varying concentrations for 72 hours. Apoptosis in CD138+ cells was measured using the Annexin V assay per the manufacturer's protocol (Biovision) followed with flow cytometric analysis (FC-500 cytometer using Cytometrics CXP software, both Beckman Coulter). Minimal apoptosis was observed without T cells. Apoptosis occurred in a much higher proportion of myeloma tumor cells exposed to IL-2-stimulated T cells (FIG. 10A). RUX increased the fraction of cells that underwent apoptosis from approximately 35% up to about 65% in a concentration dependent fashion.

MM cells = test: Dead MM cells by Trypan blue staining, BMMCs co-cultured with HS-5 stromal cells; format: cell-based, human; conditions: MM BMMCs co-cultured with HS-5
IL-2 gene expression [5] = test: IL-2 gene expression (qPCR) in BMMCs from three MM patients; format: cell-based, human; conditions: RUX 1 μM, 24 hours
Experimental: BMMCs from three MM patients were treated with RUX (1 μM) for 24 hours with or without co-culture with T cells in vitro. IL-2 gene expression levels were determined using qPCR RUX induced IL-2 expression in BMMCs alone and those co-cultured with T cells (SUP-T1, ATCC) in Trans-well culture dishes.

[6] = tested on: PD-L1 gene and protein expression; test: PD-L1 gene and protein expression in MM tumor cells alone or co-cultured with stromal cells (Example 11); format: cell-based, human; conditions: concentration dependent pattern
Experimental: BM mononuclear cells (MCs) and serum were collected from MM patients and healthy subjects after obtaining IRB approval. Single-cell suspensions were prepared from human MM LAGκ-1A xenografts which had been grown in the mice. The cells were cultured and treated with or without RUX and then were determined by qPCR, flow cytometric analysis, ELISA, and western blot.
as §1

multiple myeloma = conditions: combined with a thalidomide derivative such as lenalidomide and optionally a steroid or glucocorticoid; cited from earlier work
PD-L1 gene expression = conditions: MM patient; after 4 months of treatment vs before treatment; qPCR
Source text: (§2) A second sample of BMMCs was collected after treatment with ruxolitinib, methylprednisolone, and lenalidomide.

PD-L2 gene expression [7] = conditions: MM patient; after 4 months of treatment vs before treatment; qPCR
Source text: as §2

PD-L1 protein expression = PD-L1 protein expression on MM cells by flow cytometry, BMMCs co-cultured with HS-5 stromal cells; format: cell-based, human; conditions: fresh MM BMMCs co-cultured with HS-5, 72 hours
Experimental: To investigate the effects of RUX on PD-L1 protein expression on myeloma cell membranes, fresh MM BMMCs were isolated from MM patients and co-cultured with stromal cells (HS-5, ATCC). After 72 hours, cells were fixed using 2% paraformaldehyde for 30 minutes on ice and washed with PBS twice. The cells were stained with anti-PD-L1 antibody conjugated with PE and anti-CD138 antibody conjugated with FITC antibody for 2 hrs and analyzed by flow cytometry using a Beckman Coulter FC500 cytometer with Cytomics CXP software (Beckman Coulter, Fullerton, Calif.).

N#CC[C@H](C1CCCC1)n1cc(-c2ncnc3[nH]ccc23)cn1 [RUX, ruxolitinib]
IL-2 gene expression in BM cocultured with T cells (IL-2 gene expression [1]; SUP-T1): elevated | IL-2 gene expression in MMBM with lower plasma percentages (IL-2 gene expression [1]; plasma cell percentage <30%): increase | increase of IL-2 gene expression in MMBM with higher plasma cell percentages (IL-2 gene expression [1]; plasma cell percentage >70%): not | MM cell apoptosis in the presence of IL-2 stimulated T-cells (MM cell): increased | PD-L1 expression in the xenograft [2]: significantly decreased | PD-L2 gene expression in MM BMMCs (PD-L2 gene expression [3]): marked decrease; also recorded: inhibits | fraction of cells that underwent apoptosis [4]: about 65% | percentage of dead MM cells (MM cells): increased in a concentration dependent fashion | IL-2 expression in BMMCs alone (IL-2 gene expression [5]): induced; also recorded: increased | IL-2 expression in BMMCs co-cultured with T cells (IL-2 gene expression [5]; SUP-T1 in Trans-well dishes): induced | PD-L1 gene and protein expression in MM tumor cells [6]: markedly reduced | efficacy in treating hematological malignancies (in particular, multiple myeloma) (multiple myeloma): effective | PD-L1 gene expression in BMMCs (PD-L1 gene expression): down-regulates | PD-L2 gene expression in BMMCs (PD-L2 gene expression [7]): down-regulates | PD-L1-expressing MM tumor cells (PD-L1 protein expression): reduced in a concentration dependent manner
